{"source": "paper PMC5108240", "about": "(ACS infectious diseases, 2016)", "key": {"E. coli (ATCC 25922)": {"tested_on": "E. coli (ATCC 25922)", "assay_type": "cell-based"}, "K. pneumoniae DHFR": {"target": "K. pneumoniae DHFR (Klebsiella pneumoniae, UniProt A6T4I4)", "experiment": "biochemical"}, "[1]": {"tested_on": "K. pneumoniae (ATCC 10031)", "experiment": "microbe, parasite or virus in culture", "assay_type": "cell-based", "conditions": "Klebsiella pneumoniae, ATCC10031, read-out: MIC in the presence of thymidine"}, "[2]": {"tested_on": "K. pneumoniae (ATCC 10031)", "assay_type": "cell-based, Klebsiella pneumoniae"}}, "data": [{"smiles": "COc1cc(Cc2cnc(N)nc2N)cc(OC)c1OC", "note": "[TMP, trimethoprim]", "values": [{"measurement": "Time-kill: bacteriostatic or bactericidal", "setting": "E. coli (ATCC 25922)", "result": "bacteriostatic"}, {"measurement": "IC50", "setting": "K. pneumoniae DHFR", "result": "106 ± 6", "unit": "nM"}, {"measurement": "MIC", "setting": "[1]", "result": "> 20", "unit": "µg/mL"}, {"measurement": "MIC Kp", "setting": "[2]", "result": 0.0781, "unit": "µg/mL"}]}]}
